Experimental data as given in patent publication US20190330224A1, “ACC INHIBITORS AND USES THEREOF” (Gilead Apollo, LLC, priority 2015, published 2019).
Converted amounts (≈) assume the structure as drawn.

Legend:
Human ACC2 = Human ACC2 (Homo sapiens, UniProt O00763); test: In vitro ACC2 inhibition assay (ADP-Glo), human ACC2; assay type: biochemical; conditions: 5 nM ACC2, 20 μM ATP, 20 μM acetyl-CoA
C. albicans ATCC 90028 = test: Anti-Fungal Activity Assay (broth microtiter MIC), C. albicans; assay type: cell-based, Candida albicans; conditions: Candida albicans, ATCC90028, 48 h, 3 replicates; MIC recorded at 48 h; read-out: MIC C. albicans ATCC 90028
Outline: (§1)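 MIC taken as visual growth inhibition versus the growth control, mostly at 48 h (soraphen also at 24 h). Following CLSI M27-A3, colonies grown overnight at 35° C on Sabouraud dextrose agar were suspended in RPMI 1640+MOPS; test agents came from 1 mg/mL DMSO stocks.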

C. krusei ATCC 6258 = test: Anti-Fungal Activity Assay (broth microtiter MIC), C. krusei; assay type: cell-based, Candida krusei; conditions: Pichia kudriavzevii, ATCC6258, 48 h, 3 replicates; MIC recorded at 48 h; read-out: MIC C. krusei ATCC 6258
Outline: as §1

[1] = test system: C. parapsilosis ATCC 22019; test: Anti-Fungal Activity Assay (broth microtiter MIC), C. parapsilosis; assay type: cell-based, Candida parapsilosis; conditions: Lodderomyces parapsilosis, ATCC22019, 48 h, 3 replicates; MIC recorded at 48 h; read-out: MIC C. parapsilosis ATCC 22019
Outline: as §1

Fungal ACC2 = Fungal ACC2 (UniProt Q00955); conditions: read-out: Fungal ACC2 (IC50, in vitro ACC2 inhibition)
Fungal ACC2, sequence (Q00955 whole entry): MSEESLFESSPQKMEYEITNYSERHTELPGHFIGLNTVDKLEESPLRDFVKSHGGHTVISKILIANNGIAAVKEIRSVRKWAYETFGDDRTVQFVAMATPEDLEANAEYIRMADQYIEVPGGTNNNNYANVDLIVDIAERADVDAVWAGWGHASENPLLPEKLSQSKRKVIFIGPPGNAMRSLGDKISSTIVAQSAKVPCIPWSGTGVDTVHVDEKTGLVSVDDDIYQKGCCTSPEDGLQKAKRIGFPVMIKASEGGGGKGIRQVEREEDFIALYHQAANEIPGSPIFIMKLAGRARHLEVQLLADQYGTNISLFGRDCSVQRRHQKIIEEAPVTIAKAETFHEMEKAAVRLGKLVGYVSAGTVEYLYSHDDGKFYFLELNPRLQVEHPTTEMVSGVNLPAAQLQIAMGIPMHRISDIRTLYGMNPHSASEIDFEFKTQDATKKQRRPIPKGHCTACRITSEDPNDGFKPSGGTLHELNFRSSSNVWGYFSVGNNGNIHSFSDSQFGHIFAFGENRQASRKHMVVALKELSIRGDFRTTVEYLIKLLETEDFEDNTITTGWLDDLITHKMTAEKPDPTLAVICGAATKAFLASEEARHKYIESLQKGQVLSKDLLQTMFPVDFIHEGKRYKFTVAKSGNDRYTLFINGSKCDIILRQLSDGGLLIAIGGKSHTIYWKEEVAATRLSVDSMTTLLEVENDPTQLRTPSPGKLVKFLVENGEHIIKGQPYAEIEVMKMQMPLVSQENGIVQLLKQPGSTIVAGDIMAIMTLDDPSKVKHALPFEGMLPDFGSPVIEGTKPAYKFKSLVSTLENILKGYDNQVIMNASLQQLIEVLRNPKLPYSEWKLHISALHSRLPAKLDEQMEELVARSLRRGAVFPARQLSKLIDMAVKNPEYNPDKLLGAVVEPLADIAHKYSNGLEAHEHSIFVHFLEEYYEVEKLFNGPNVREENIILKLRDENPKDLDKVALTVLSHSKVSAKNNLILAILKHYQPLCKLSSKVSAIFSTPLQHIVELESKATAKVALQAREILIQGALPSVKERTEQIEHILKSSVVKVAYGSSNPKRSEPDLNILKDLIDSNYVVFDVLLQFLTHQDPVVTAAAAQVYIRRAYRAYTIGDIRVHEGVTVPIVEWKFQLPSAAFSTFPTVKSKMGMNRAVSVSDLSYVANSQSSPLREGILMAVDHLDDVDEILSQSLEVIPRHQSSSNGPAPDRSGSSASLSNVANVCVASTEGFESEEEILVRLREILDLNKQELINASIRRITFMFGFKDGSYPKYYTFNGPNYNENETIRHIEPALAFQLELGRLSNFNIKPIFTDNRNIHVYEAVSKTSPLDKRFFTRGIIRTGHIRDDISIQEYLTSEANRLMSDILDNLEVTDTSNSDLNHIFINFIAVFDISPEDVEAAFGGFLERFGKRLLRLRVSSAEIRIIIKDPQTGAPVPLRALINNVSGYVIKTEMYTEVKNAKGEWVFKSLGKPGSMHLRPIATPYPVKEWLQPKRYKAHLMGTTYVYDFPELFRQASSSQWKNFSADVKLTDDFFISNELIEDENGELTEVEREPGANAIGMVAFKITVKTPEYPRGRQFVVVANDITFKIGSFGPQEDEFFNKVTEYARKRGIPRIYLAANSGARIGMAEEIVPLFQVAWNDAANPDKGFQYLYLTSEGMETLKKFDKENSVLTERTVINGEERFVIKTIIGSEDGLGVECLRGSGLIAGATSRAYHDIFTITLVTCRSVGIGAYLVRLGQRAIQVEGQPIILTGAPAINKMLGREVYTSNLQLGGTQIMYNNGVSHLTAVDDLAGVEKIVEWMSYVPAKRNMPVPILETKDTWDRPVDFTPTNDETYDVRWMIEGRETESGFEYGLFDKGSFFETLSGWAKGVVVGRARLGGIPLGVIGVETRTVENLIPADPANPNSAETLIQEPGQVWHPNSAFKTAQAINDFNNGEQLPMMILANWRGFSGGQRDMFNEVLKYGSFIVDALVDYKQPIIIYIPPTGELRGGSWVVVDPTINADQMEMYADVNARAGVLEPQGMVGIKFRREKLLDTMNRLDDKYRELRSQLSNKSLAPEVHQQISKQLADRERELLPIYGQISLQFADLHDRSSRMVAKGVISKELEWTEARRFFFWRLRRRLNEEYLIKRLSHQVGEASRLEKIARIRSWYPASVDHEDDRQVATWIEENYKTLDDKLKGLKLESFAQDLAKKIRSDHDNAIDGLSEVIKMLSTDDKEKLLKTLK

Human ACC2, sequence (O00763 whole entry): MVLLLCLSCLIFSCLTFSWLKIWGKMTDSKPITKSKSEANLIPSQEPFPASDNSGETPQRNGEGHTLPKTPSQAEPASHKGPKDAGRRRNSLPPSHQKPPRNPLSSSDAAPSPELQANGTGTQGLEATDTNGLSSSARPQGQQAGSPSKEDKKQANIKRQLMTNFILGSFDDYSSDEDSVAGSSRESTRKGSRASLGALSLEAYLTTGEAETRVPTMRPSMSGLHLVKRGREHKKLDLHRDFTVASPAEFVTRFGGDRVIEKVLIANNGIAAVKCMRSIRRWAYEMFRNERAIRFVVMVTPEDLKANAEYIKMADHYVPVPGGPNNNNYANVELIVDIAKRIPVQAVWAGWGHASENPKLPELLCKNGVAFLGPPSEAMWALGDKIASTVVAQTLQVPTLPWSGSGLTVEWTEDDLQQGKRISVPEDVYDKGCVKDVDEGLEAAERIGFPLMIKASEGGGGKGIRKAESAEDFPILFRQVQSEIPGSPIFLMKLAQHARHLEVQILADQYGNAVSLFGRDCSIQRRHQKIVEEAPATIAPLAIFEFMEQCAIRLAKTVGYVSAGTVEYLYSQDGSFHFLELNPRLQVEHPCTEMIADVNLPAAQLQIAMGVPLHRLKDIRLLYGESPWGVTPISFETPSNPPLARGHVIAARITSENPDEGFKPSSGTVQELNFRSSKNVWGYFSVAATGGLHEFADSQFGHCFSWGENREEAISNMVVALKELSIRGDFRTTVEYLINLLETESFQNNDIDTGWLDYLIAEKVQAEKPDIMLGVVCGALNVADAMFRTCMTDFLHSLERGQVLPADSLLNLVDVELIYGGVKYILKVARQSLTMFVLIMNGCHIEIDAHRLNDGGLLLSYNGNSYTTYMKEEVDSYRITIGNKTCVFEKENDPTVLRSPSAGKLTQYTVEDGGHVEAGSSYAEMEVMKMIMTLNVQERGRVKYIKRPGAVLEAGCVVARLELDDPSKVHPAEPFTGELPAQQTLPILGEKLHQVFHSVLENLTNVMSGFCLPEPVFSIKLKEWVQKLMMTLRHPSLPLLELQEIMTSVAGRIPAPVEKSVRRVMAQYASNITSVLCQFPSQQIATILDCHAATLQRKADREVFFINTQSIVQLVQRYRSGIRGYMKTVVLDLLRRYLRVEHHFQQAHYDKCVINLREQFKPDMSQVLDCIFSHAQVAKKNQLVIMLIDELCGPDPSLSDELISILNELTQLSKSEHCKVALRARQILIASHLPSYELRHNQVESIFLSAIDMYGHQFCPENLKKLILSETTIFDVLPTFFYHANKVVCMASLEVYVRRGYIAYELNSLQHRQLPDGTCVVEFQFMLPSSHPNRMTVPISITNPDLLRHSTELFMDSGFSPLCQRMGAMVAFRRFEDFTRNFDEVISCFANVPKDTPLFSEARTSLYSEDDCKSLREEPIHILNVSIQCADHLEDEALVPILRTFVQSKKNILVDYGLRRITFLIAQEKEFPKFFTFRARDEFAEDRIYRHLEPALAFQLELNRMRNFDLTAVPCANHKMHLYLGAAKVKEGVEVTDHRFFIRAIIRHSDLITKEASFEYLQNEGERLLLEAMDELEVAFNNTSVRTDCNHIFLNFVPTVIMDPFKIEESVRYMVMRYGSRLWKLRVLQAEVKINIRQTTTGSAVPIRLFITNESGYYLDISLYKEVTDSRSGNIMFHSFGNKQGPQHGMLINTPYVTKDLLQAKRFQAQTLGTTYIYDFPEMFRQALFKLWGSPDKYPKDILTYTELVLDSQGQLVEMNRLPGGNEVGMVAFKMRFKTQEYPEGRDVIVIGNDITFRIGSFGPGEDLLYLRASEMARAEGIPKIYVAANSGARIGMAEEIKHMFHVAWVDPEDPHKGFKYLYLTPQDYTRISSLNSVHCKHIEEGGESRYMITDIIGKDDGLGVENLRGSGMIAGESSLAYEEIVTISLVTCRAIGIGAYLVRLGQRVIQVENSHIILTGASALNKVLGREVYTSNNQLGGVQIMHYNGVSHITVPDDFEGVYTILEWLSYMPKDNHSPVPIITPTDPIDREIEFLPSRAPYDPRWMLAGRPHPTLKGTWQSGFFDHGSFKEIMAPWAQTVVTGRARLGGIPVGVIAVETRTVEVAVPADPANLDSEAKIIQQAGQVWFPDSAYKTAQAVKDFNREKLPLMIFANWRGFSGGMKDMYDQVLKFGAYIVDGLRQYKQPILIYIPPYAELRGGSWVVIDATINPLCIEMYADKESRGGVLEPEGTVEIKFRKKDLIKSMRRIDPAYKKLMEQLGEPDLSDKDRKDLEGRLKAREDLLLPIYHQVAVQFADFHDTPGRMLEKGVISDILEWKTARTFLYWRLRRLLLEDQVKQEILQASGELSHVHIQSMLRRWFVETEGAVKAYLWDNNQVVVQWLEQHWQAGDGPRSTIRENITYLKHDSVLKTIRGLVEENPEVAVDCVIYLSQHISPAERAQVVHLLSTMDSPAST

| SMILES | IC50 (Human ACC2) [nM] | MIC (C. albicans ATCC 90028) [µg/mL] | MIC (C. krusei ATCC 6258) [µg/mL] | MIC [1] [µg/mL] | IC50 (Fungal ACC2) [nM] |
| --- | --- | --- | --- | --- | --- |
| COCCO[C@@H](Cn1c(=O)n([C@]2(C)CC(=O)N(C)C2)c(=O)c2c(C)c(-n3nccn3)sc21)c1cc(F)ccc1OC [Compound I-120, 3-((R)-1,3-dimethyl-5-oxopyrrolidin-3-yl)-1-((R)-2-(5-fluoro-2-methoxyphenyl)-2-(2-methoxyethoxy)ethyl)-5-methyl-6-(2H-1,2,3-triazol-2-yl)thieno[2,3-d]pyrimidine-2,4(1H,3H)-dione] | 10 to 100 | 2.1 to 4 (≈ 3.58 to 6.82 µM) | 2.1 to 4 (≈ 3.58 to 6.82 µM) | 2.1 to 4 (≈ 3.58 to 6.82 µM) | 0.7 to 2 |
| COc1ccc(F)cc1[C@H](Cn1c(=O)n([C@]2(C)CC(=O)N(C)C2)c(=O)c2c(C)c(-n3nccn3)sc21)OCCO [Compound I-121, 3-((R)-1,3-dimethyl-5-oxopyrrolidin-3-yl)-1-((R)-2-(5-fluoro-2-methoxyphenyl)-2-(2-hydroxyethoxy)ethyl)-5-methyl-6-(2H-1,2,3-triazol-2-yl)thieno[2,3-d]pyrimidine-2,4(1H,3H)-dione] | 10 to 100 | 2.1 to 4 (≈ 3.67 to 6.99 µM) | 2.1 to 4 (≈ 3.67 to 6.99 µM) | 2.1 to 4 (≈ 3.67 to 6.99 µM) | 0.7 to 2 |
| COCCO[C@@H](Cn1c(=O)n([C@@]2(C)CC(=O)N(C)C2)c(=O)c2c(C)c(-n3nccn3)sc21)c1cc(F)ccc1OC [Compound I-122, 3-((S)-1,3-dimethyl-5-oxopyrrolidin-3-yl)-1-((R)-2-(5-fluoro-2-methoxyphenyl)-2-(2-methoxyethoxy)ethyl)-5-methyl-6-(2H-1,2,3-triazol-2-yl)thieno[2,3-d]pyrimidine-2.4(1H, 3H)-dione] | 10 to 100 | 2.1 to 4 (≈ 3.58 to 6.82 µM) | 2.1 to 4 (≈ 3.58 to 6.82 µM) | 2.1 to 4 (≈ 3.58 to 6.82 µM) | 2 to 10 |
| COc1ccc(F)cc1[C@H](Cn1c(=O)n([C@@]2(C)CC(=O)N(C)C2)c(=O)c2c(C)c(-n3nccn3)sc21)OCCO [Compound I-123, 3-((S)-1,3-dimethyl-5-oxopyrrolidin-3-yl)-1-((R)-2-(5-fluoro-2-methoxyphenyl)-2-(2-hydroxyethoxy)ethyl)-5-methyl-6-(2H-1,2,3-triazol-2-yl)thieno[2,3-d]pyrimidine-2,4(1H,3H)-dione] | 10 to 100 | 2.1 to 4 (≈ 3.67 to 6.99 µM) | 2.1 to 4 (≈ 3.67 to 6.99 µM) | 2.1 to 4 (≈ 3.67 to 6.99 µM) | 0.7 to 2 |
| COCCO[C@@H](Cn1c(=O)n([C@]2(C)CCCNC2=O)c(=O)c2c(C)c(-n3nccn3)sc21)c1cc(F)ccc1OC [Compound I-124, 1-((R)-2-(5-fluoro-2-methoxyphenyl)-2-(2-methoxy-ethoxy)ethyl)-5-methyl-3-((R)-3-methyl-2-oxopiperidin-3-yl)-6-(2H-1,2,3-triazol-2-yl)thieno[2,3-d]pyrimidine-2,4(1H,3H)-dione] | 10 to 100 | 2.1 to 4 (≈ 3.58 to 6.82 µM) | 2.1 to 4 (≈ 3.58 to 6.82 µM) | 2.1 to 4 (≈ 3.58 to 6.82 µM) | 2 to 10 |
| COCCO[C@@H](Cn1c(=O)n([C@@]2(C)CCCNC2=O)c(=O)c2c(C)c(-n3nccn3)sc21)c1cc(F)ccc1OC [Compound I-125, 1-((R)-2-(5-fluoro-2-methoxyphenyl)-2-(2-methoxy-ethoxy)ethyl)-5-methyl-3-((S)-3-methyl-2-oxopiperidin-3-yl)-6-(2H-1,2,3-triazol-2-yl)thieno[2,3-d]pyrimidine-2,4(1H,3H)-dione] | 10 to 100 | 2.1 to 4 (≈ 3.58 to 6.82 µM) | 2.1 to 4 (≈ 3.58 to 6.82 µM) | 2.1 to 4 (≈ 3.58 to 6.82 µM) | 2 to 10 |
| COc1ccc(F)cc1[C@H](Cn1c(=O)n([C@]2(C)CCCNC2=O)c(=O)c2c(C)c(-n3nccn3)sc21)OCCO [Compound I-126, 1-((R)-2-(5-fluoro-2-methoxyphenyl)-2-(2-hydroxyethoxy)ethyl)-5-methyl-3-((R)-3-methyl-2-oxopiperidin-3-yl)-6-(2H, 1,2,3-triazol-2-yl)thieno[2,3-d]pyrimidine-2,4(1H,3H)-dione] | 2 to 10 | 2.1 to 4 (≈ 3.67 to 6.99 µM) | 0.25 to 1 (≈ 0.437 to 1.75 µM) | 2.1 to 4 (≈ 3.67 to 6.99 µM) | 0.7 to 2 |
| COc1ccc(F)cc1[C@H](Cn1c(=O)n([C@@]2(C)CCCNC2=O)c(=O)c2c(C)c(-n3nccn3)sc21)OCCO [Compound I-127, 1-((R)-2-(5-fluoro-2-methoxyphenyl)-2-(2-hydroxyethoxy)ethyl)-5-methyl-3-((S)-3-methyl-2-oxopiperidin-3-yl)-6-(2H-1,2,3-triazol-2-yl)thieno[2,3-d]pyrimidine-2,4(1H,3H)-dione] | 10 to 100 | 2.1 to 4 (≈ 3.67 to 6.99 µM) | 2.1 to 4 (≈ 3.67 to 6.99 µM) | 2.1 to 4 (≈ 3.67 to 6.99 µM) | 0.7 to 2 |
| COCCO[C@@H](Cn1c(=O)n([C@]2(C)CCCN(C)C2=O)c(=O)c2c(C)c(-n3nccn3)sc21)c1cc(F)ccc1OC [Compound I-128, 3-((R)-1,3-dimethyl-2-oxopiperidin-3-yl)-1-((R)-2-(5-fluoro-2-methoxyphenyl)-2-(2-methoxyethoxy)ethyl)-5-methyl-6-(2H-1,2,3-triazol-2-yl)thieno[2,3-d]pyrimidine-2,4(1H,3H)-dione] | 10 to 100 | 2.1 to 4 (≈ 3.5 to 6.66 µM) | 2.1 to 4 (≈ 3.5 to 6.66 µM) | 2.1 to 4 (≈ 3.5 to 6.66 µM) | 2 to 10 |
| COc1ccc(F)cc1[C@H](Cn1c(=O)n([C@]2(C)CCCN(C)C2=O)c(=O)c2c(C)c(-n3nccn3)sc21)OCCO [Compound I-129, 3-((R)-1,3-dimethyl-2-oxopiperidin-3-yl)-1-((R)-2-(5-fluoro-2-methoxyphenyl)-2-(2-hydroxyethoxy)ethyl)-5-methyl-6-(2H-1,2,3-triazol-2-yl)thieno[2,3-d]pyrimidine-2,4(1H,3H)-dione] | 10 to 100 | 2.1 to 4 (≈ 3.58 to 6.82 µM) | 2.1 to 4 (≈ 3.58 to 6.82 µM) | 2.1 to 4 (≈ 3.58 to 6.82 µM) | 0.7 to 2 |
| COCCO[C@@H](Cn1c(=O)n([C@@]2(C)CCCN(C)C2=O)c(=O)c2c(C)c(-n3nccn3)sc21)c1cc(F)ccc1OC [Compound I-130, 3-((S)-1,3-dimethyl-2-oxopiperidin-3-yl)-1-((R)-2-(5-fluoro-2-methoxyphenyl)-2-(2-methoxyethoxy)ethyl)-5-methyl-6-(2H-1,2,3-triazol-2-yl)thieno[2,3-d]pyrimidine-2,4(1H,3H)-dione] | 100 to 1000 | 2.1 to 4 (≈ 3.5 to 6.66 µM) | 2.1 to 4 (≈ 3.5 to 6.66 µM) | 2.1 to 4 (≈ 3.5 to 6.66 µM) | 2 to 10 |
| COc1ccc(F)cc1[C@H](Cn1c(=O)n([C@@]2(C)CCCN(C)C2=O)c(=O)c2c(C)c(-n3nccn3)sc21)OCCO [Compound I-131, 3-((S)-1,3-dimethyl-2-oxopiperidin-3-yl)-1-((R)-2-(5-fluoro-2-methoxyphenyl)-2-(2-hydroxyethoxy)ethyl)-5-methyl-6-(2H-1,2,3-triazol-2-yl)thieno[2,3-d]pyrimidine-2,4(1H,3H)-dione] | 10 to 100 | 2.1 to 4 (≈ 3.58 to 6.82 µM) | 2.1 to 4 (≈ 3.58 to 6.82 µM) | 2.1 to 4 (≈ 3.58 to 6.82 µM) | 0.7 to 2 |
| COCCO[C@@H](Cn1c(=O)n([C@]2(C)CCC(=O)NC2)c(=O)c2c(C)c(-n3nccn3)sc21)c1cc(F)ccc1OC [Compound I-132, 1-((R)-2-(5-fluoro-2-methoxyphenyl)-2-(2-methoxy-ethoxy)ethyl)-5-methyl-3-((R)-3-methyl-6-oxopiperidin-3-yl)-6-(2H-1,2,3-triazol-2-yl)thieno[2,3-d]pyrimidine-2,4(1H,3H)-dione] | 10 to 100 | 2.1 to 4 (≈ 3.58 to 6.82 µM) | 2.1 to 4 (≈ 3.58 to 6.82 µM) | 2.1 to 4 (≈ 3.58 to 6.82 µM) | 0.7 to 2 |
| COCCO[C@@H](Cn1c(=O)n([C@@]2(C)CCC(=O)NC2)c(=O)c2c(C)c(-n3nccn3)sc21)c1cc(F)ccc1OC [Compound I-134, 1-((R)-2-(5-fluoro-2-methoxyphenyl)-2-(2-methoxy-ethoxy)ethyl)-5-methyl-3-((S)-3-methyl-6-oxopiperidin-3-yl)-6-(2H-1,2,3-triazol-2-yl)thieno[2,3-d]pyrimidine-2,4(1H,3H)-dione] | 100 to 1000 | 2.1 to 4 (≈ 3.58 to 6.82 µM) | 2.1 to 4 (≈ 3.58 to 6.82 µM) | 2.1 to 4 (≈ 3.58 to 6.82 µM) | 2 to 10 |
| COCCO[C@@H](Cn1c(=O)n([C@]2(C)CCC(=O)N(C)C2)c(=O)c2c(C)c(-n3nccn3)sc21)c1cc(F)ccc1OC [Compound I-136, 3-((R)-1,3-dimethyl-6-oxopiperidin-3-yl)-1-((R)-2-(5-fluoro-2-methoxyphenyl)-2-(2-methoxyethoxy)ethyl)-5-methyl-6-(2H-1,2,3-triazol-2-yl)thieno[2,3-d]pyrimidine-2,4(1H,3H)-dione] | 10 to 100 | 2.1 to 4 (≈ 3.5 to 6.66 µM) | 2.1 to 4 (≈ 3.5 to 6.66 µM) | 2.1 to 4 (≈ 3.5 to 6.66 µM) | 0.7 to 2 |
| COCCO[C@@H](Cn1c(=O)n([C@@]2(C)CCC(=O)N(C)C2)c(=O)c2c(C)c(-n3nccn3)sc21)c1cc(F)ccc1OC [Compound I-137, 3-((S)-1,3-dimethyl-6-oxopiperidin-3-yl)-1-((R)-2-(5-fluoro-2-methoxyphenyl)-2-(2-methoxyethoxy)ethyl)-5-methyl-6-(2H-1,2,3-triazol-2-yl)thieno[2,3-d]pyrimidine-2,4(1H,3H)-dione] | 10 to 100 | 2.1 to 4 (≈ 3.5 to 6.66 µM) | 2.1 to 4 (≈ 3.5 to 6.66 µM) | 2.1 to 4 (≈ 3.5 to 6.66 µM) | 2 to 10 |
| COc1ccc(F)cc1[C@H](Cn1c(=O)n([C@]2(C)CCC(=O)N(C)C2)c(=O)c2c(C)c(-n3nccn3)sc21)OCCO [Compound I-142] | 2 to 10 | 2.1 to 4 (≈ 3.58 to 6.82 µM) | 2.1 to 4 (≈ 3.58 to 6.82 µM) | 2.1 to 4 (≈ 3.58 to 6.82 µM) | 0.7 to 2 |
